# Laboratory results from patent US20140343000A1 (priority 2011, published 2014).
# System: recombinant NL4-3 virus (Renilla luciferase in nef, Gag P373S; NLRluc) in MT-2 cells
# Test: whole plant or invertebrate
# Format: cell-based, HIV
# Settings: Renilla, NL43, luciferase activity in cells infected for 4-5 days with NLRluc recombinants, serial dilutions of inhibitor; class symbols (key in Table 1); read-out: EC50
# In short: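 MT-2 cells in RPMI 1640 with 10% heat-inactivated FBS were infected with the reporter virus, made by transfecting the proviral clone into 293T cells, and cultured 4-5 days with serial inhibitor dilutions. Antiviral activity was quantified from Renilla luciferase activity measured in lysed cells.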
row,Compound,EC50
1,"C=C(C)[C@@H]1CC[C@]2(NCCN3CCN(C(=O)CC(C)C)CC3)CC[C@]3(C)[C@H](CC[C@@H]4[C@@]5(C)CC=C(c6ccc(C(=O)O)cc6)C(C)(C)[C@@H]5CC[C@]43C)[C@@H]12 [Example B59, 4-((1R,3aS,5aR,5bR,7aR,11aS,11bR,13aR,13bR)-5a,5b,8,8,11a-pentamethyl-3a-((2-(4-(3-methylbutanoyl)piperazin-1-yl)ethyl)amino)-1-(prop-1-en-2-yl)-2,3,3a,4,5,5a,5b,6,7,7a,8,11,11a,11b,12,13,13a,13b-octadecahydro-1H-cyclopenta[a]chrysen-9-yl)benzoic acid]",< 100 nM
2,"C=C(C)[C@@H]1CC[C@]2(NC(=O)OCCCCN3CCS(=O)(=O)CC3)CC[C@]3(C)[C@H](CC[C@@H]4[C@@]5(C)CC=C(c6ccc(C(=O)O)cc6)C(C)(C)[C@@H]5CC[C@]43C)[C@@H]12 [Example 72, benzoic acid, 4-[(1R,3aS,5aR,5bR,7aR,11aS,11bR,13aR,13bR)-3a-[[[4-(1,1-dioxido-4-thiomorpholinyl)butoxy]carbonyl]amino]-2,3,3a,4,5,5a,5b,6,7,7a,8,11,11a,11b,12,13,13a,13b-octadecahydro-5a,5b,8,8,11a-pentamethyl-1-(1-methylethenyl)-1H-cyclopenta[a]chrysen-9-yl]]",< 100 nM
3,"C=C(C)[C@@H]1CC[C@]2(NC(=O)N(CCN)CC(=O)O)CC[C@]3(C)[C@H](CC[C@@H]4[C@@]5(C)CC=C(c6ccc(C(=O)O)cc6)C(C)(C)[C@@H]5CC[C@]43C)[C@@H]12 [Example 58, 4-((1R,3aS,5aR,5bR,7aR,11aS,11bR,13aR,13bR)-3a-(3-(2-aminoethyl)-3-(carboxymethyl)ureido)-5a,5b,8,8,11a-pentamethyl-1-(prop-1-en-2-yl)-2,3,3a,4,5,5a,5b,6,7,7a,8,11,11a,11b,12,13,13a,13b-octadecahydro-1H-cyclopenta[a]chrysen-9-yl)benzoic acid]",< 100 nM
4,"C=C(C)[C@@H]1CC[C@]2(NC(=O)NC3(CN4CCCCC4)CC3)CC[C@]3(C)[C@H](CC[C@@H]4[C@@]5(C)CC=C(c6ccc(C(=O)O)cc6)C(C)(C)[C@@H]5CC[C@]43C)[C@@H]12 [Example 8, 4-((1R,3aS,5aR,5bR,7aR,11aS,11bR,13aR,13bR)-5a,5b,8,8,11a-pentamethyl-3a-(3-(1-(piperidin-1-ylmethyl)cyclopropyl)ureido)-1-(prop-1-en-2-yl)-2,3,3a,4,5,5a,5b,6,7,7a,8,11,11a,11b,12,13,13a,13b-octadecahydro-1H-cyclopenta[a]chrysen-9-yl)benzoic acid]",< 100 nM
5,"C=C(C)[C@@H]1CC[C@]2(NCCNc3ccccc3)CC[C@]3(C)[C@H](CC[C@@H]4[C@@]5(C)CC=C(c6ccc(C(=O)O)cc6)C(C)(C)[C@@H]5CC[C@]43C)[C@@H]12 [Example 192, 4-((1R,3aS,5aR,5bR,7aR,11aS,11bR,13aR,13bR)-5a,5b,8,8,11a-pentamethyl-3a-(2-(phenylamino)ethylamino)-1-(prop-1-en-2-yl)-2,3,3a,4,5,5a,5b,6,7,7a,8,11,11a,11b,12,13,13a,13b-octadecahydro-1H-cyclopenta[a]chrysen-9-yl)benzoic acid]",< 100 nM

# Same assay, conditions: Renilla, NL43, luciferase activity in cells infected for 4-5 days with NLRluc recombinants, serial dilutions of inhibitor; numeric values; read-out: EC50
row,Compound,EC50
1,"C=C(C)[C@@H]1CC[C@]2(NC(=O)N3CCN([C@@H]4COC[C@H]4N(C)C)CC3)CC[C@]3(C)[C@H](CC[C@@H]4[C@@]5(C)CC=C(c6ccc(C(=O)O)cc6)C(C)(C)[C@@H]5CC[C@]43C)[C@@H]12 [Example 9, 4-((1R,3aS,5aR,5bR,7aR,11aS,11bR,13aR,13bR)-3a-(4-((3S,4S)-4-(dimethylamino)tetrahydrofuran-3-yl)piperazine-1-carboxamido)-5a,5b,8,8,11a-pentamethyl-1-(prop-1-en-2-yl)-2,3,3a,4,5,5a,5b,6,7,7a,8,11,11a,11b,12,13,13a,13b-octadecahydro-1H-cyclopenta[a]chrysen-9-yl)benzoic acid]",3 nM
